In assay [1] the target is T1, DNMT3A2/3L complex (Homo sapiens) (UniProt Q9Y6K1+Q9UJW3). Put plainly: Inhibition of N-terminal His-tagged human DNMT3A (623 to 912 residues)/N-terminal GST-tagged human DNMT3L (160 to 387 residues) co-expressed in baculovirus infected Sf9 cells assessed as DNA methylation using DNA oligonucleotide IDT-01 as substrate at 100 uM preincubated for 15 mins followed by substrate addition in presence of [3H]-SAM and measured after 4 hrs by radioactive methylation assay. Conditions: time 255.0 min.
T1 sequence (Q9UJW3 whole entry, looked up, the tested form may be a part): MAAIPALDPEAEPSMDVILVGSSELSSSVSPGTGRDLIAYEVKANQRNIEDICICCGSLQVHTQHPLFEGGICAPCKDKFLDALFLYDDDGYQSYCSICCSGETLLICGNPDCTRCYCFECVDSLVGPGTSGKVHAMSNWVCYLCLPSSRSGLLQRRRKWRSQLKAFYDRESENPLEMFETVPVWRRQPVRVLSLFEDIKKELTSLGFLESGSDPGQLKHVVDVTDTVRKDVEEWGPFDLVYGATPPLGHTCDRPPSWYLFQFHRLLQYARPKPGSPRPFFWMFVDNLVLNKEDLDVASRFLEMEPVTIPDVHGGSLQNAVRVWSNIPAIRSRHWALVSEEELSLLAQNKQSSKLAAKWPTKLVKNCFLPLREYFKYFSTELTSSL
T1 sequence (Q9Y6K1 whole entry, looked up, the tested form may be a part): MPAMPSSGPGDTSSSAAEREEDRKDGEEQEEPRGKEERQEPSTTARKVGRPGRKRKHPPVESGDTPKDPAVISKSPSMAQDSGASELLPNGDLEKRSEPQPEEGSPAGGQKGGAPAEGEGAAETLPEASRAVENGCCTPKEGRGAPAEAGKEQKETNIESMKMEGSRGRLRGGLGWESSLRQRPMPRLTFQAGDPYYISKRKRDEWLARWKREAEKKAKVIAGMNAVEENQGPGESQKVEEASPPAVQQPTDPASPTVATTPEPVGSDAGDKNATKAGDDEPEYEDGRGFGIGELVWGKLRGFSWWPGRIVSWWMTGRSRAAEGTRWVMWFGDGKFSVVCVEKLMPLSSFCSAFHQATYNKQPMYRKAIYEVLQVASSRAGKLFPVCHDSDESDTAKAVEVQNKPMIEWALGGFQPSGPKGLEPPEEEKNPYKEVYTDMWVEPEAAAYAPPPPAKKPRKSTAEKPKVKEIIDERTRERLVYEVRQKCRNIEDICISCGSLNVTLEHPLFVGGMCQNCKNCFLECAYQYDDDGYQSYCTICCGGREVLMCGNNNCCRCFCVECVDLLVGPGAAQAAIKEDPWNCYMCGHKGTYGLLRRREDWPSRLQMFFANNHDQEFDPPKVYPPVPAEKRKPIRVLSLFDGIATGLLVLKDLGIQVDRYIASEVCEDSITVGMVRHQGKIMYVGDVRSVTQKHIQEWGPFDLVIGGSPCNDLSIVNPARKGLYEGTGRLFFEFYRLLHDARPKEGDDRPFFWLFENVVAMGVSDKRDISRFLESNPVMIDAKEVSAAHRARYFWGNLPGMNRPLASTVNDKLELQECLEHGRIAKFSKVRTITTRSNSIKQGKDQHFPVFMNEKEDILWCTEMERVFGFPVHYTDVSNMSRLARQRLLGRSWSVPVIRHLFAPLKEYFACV

Assay [2] addresses T1, DNMT3A2/3L complex (Homo sapiens). Kind of assay: Inhibition of N-terminal His-tagged human DNMT3A (623 to 912 residues)/N-terminal GST-tagged human DNMT3L (160 to 387 residues) co-expressed in baculovirus infected Sf9 cells assessed as DNA methylation using DNA oligonucleotide IDT-01 as substrate at 10 uM preincubated for 15 mins followed by substrate addition in presence of [3H]-SAM and measured after 4 hrs by radioactive methylation assay. The conditions noted are these: time 255.0 min.

As to `Cc1sc2ncn(CCCN(C)C)c(=O)c2c1C(=O)Nc1ccc(S(N)(=O)=O)nc1`, the values for the inhibition in assay [1] and in assay [2] were 57.5% and 51.3%, respectively.

On to `Cc1oc2ncn(CCCN3CCOCC3)c(=O)c2c1C(=O)Nc1ccc(S(N)(=O)=O)nc1`, for which the inhibition in assay [1] worked out at 54.2%; in assay [2], 36%.

For `Cc1oc2ncn(CCN3CCOCC3)c(=O)c2c1C(=O)Nc1ccc(C#N)cc1`, the inhibition was 5.8% in assay [1] and 1% in assay [2].

Turning to `Cc1oc2ncn(Cc3ccncc3)c(=O)c2c1C(=O)Nc1ccc(S(N)(=O)=O)nc1`, in assay [1], the inhibition amounted to 18.1%.

Take `Cc1oc2ncn(CCN3CCCCC3)c(=O)c2c1C(=O)Nc1ccc(C#N)cc1`: the values for the inhibition in assay [1] and in assay [2] were 14.3% and 25.4%, respectively.

`Cc1oc2ncn(CCCN(C)C)c(=O)c2c1C(=O)Nc1ccc(C#N)cc1`: the inhibition in assay [1] turned out to be 36%; in assay [2], 36.4%.

Regarding `Cc1oc2ncn(Cc3ccccc3)c(=O)c2c1C(=O)Nc1ccc(S(N)(=O)=O)nc1`, in assay [1], the inhibition was 29.5%.

With `Cc1oc2ncn(CCN(C)C)c(=O)c2c1C(=O)Nc1ccc(C#N)cc1`, the inhibition is 24% in assay [1] and 21.7% in assay [2].

As for `Cc1sc2ncn(CCCN(C)C)c(=O)c2c1C(=O)Nc1ccc(C#N)nc1`, the inhibition in assay [1] is 37.8%; in assay [2], 28.9%.

Consider `Cc1oc2ncn(C(C)c3ccccc3)c(=O)c2c1C(=O)Nc1ccc(S(N)(=O)=O)nc1` (stereo unspecified), for which, in assay [1], the inhibition was 28.6%.

Consider `Cc1oc2ncn(CC3CCCO3)c(=O)c2c1C(=O)Nc1ccc(S(N)(=O)=O)nc1` (stereo unspecified), for which the inhibition in assay [1] stood at 29.5%.

On to `Cc1oc2ncn(CCN3CCCC3)c(=O)c2c1C(=O)Nc1ccc(C#N)cc1`, for which the inhibition in assay [1] is 48.6%; in assay [2], 47.5%.

Consider `Cc1oc2ncn(CCCN3CCCCC3)c(=O)c2c1C(=O)Nc1ccc(C#N)cc1`, for which the values for the inhibition in assay [1] and in assay [2] were 44% and 32.9%, respectively.

Take `Cc1oc2ncn(CCCN3CCCC3)c(=O)c2c1C(=O)Nc1ccc(C#N)cc1`: the inhibition in assay [1] stood at 53.9%; in assay [2] it was 33.7%.

As to `Cc1oc2ncn(CCCN3CCOCC3)c(=O)c2c1C(=O)Nc1ccc(C#N)cc1`, the inhibition was determined as 28.4% in assay [1] and 22.7% in assay [2].

Broadly, the inhibition is the percentage by which the read-out fell short of the control.

Source of the values: ChEMBL document CHEMBL5352402, “Discovery of novel non-nucleoside inhibitors with high potency and selectivity for DNA methyltransferase 3A” (Eur J Med Chem, 2022).
